Among the data in US20250144069A1, “BILOBALIDE DERIVATIVE COMPOUNDS FOR TREATING NEUROLOGICAL DISEASES AND CANCERS” (The Chinese University of Hong Kong, priority 2023, published 2025) are viability values, retold here.

Assay type in all cases: cell-based, human
The test system of one experiment is Jurkat cells. As to the kind of experiment: Single-dose CCK-8 cell viability screening (suspension cells). The conditions noted are these: Homo sapiens, Jurkat, 48 h. As for the experimental part:
(§1) In this example, the anti-cancer properties of the BB analogues described in Table 1d were evaluated. Single-dose screening approach is used for initial testing to assess the cytotoxic effect of the BB analogues (also referred to as ‘BB compounds’) on Jurkat cells (human T cell leukaemia cells) and A549 cells (human lung cancer cells).
Method for Suspension Cells (Jurkat Cells)
5000 cells/90 uL were seeded in 96-well plates. 10 uL of 500 uM compound (10×) was added to each well in 6 replicates. The following controls were prepared.
Blank control: 10 uL 1% DMSO in media with no cells per well.
Positive control: 10 uL of 100 uM 5-flurouracil (10×) per well.
Negative control: 10 uL of 1% DMSO in media (10×) per well.
Each 96-well plate included 7 BB analogues and the complete set of controls (in 6 replicates).
(§2) Cells were incubated at 37° C.+5% CO2 for 46 hours. 10 uL of CCK8 solution was added to each well. Cells were then incubated at 37° C.+5% CO2 for 2 hours. Absorbance at 450 nm was measured using a multiplate reader.
(§3) Viability was calculated using the equation: […]
(§4) The benchmark in Table 2 was used to define the activities of each compound.

A further experiment relates to A549 cells. As to the kind of experiment: Single-dose CCK-8 cell viability screening (adherent cells). The conditions noted are these: Homo sapiens, A549, 48 h, read-out: % Viability (50 uM, 48 h) A549. On the procedure:
as §1
(§5) Method for Adherent Cells (A549 Cells)
(§6) In this example, 5000 cells/100 uL were seeded in 96-well plates and incubate at 37° C.+5% CO2 overnight. Media were replaced with 100 uL of 50 uM compound per well in 6 replicates. The following controls were prepared.
(§7) Blank control: 100 uL 0.1% DMSO in media with no cells per well.
(§8) Positive control: 100 uL of 10 uM 5-flurouracil per well.
(§9) Negative control: 100 uL of 0.1% DMSO in media per well.
(§10) Each 96-well plate included 7 compounds and the complete set of controls (in 6 replicates).
as §2, §3, §4

Test in experiment [1]: as above
The conditions noted are these: Homo sapiens, average of A549 and Jurkat % viability, 50 uM, 48 h. As for the experimental part:
as §1, §5, §6, §7, §8, §9, §10, §2, §3, §4

[2] abbreviates: Jurkat cells, 50 uM, CCK-8, read-out: % Viability (50 uM, 48 h) Jurkat.
The mark [3] stands for this setting: read-out: % Viability (50 uM, 48 h) Jurkat.

Read-outs that look alike come from different tables or passages of the source.

For `CC(C)(C)[C@]1(O)C[C@@H]2OC(=O)C[C@@]23C(=O)O[C@@H]2N(CCN4CCNCC4)C(=O)C(OC(=O)c4ccccc4)[C@]213` (stereo in doubt) [XBB-028, 4-(2-((3aS,5aS,8S,8aS,9R,10aS)-8-(benzoyloxy)-9-(tert-butyl)-9-hydroxy-2,4,7-trioxohexahydro-4H,9H-furo [3″,2″:2′,3′]cyclopenta [1′,2′:3,4]furo [2,3-b]pyrrol-6(5aH)-yl)ethyl)piperazin-1-ium chloride], the viability (in general, a read-out of living cells in per cent, often relative to untreated cells) at 50 µM came to 90.5% in the experiment on Jurkat cells (setting [2]); 88.8% with A549 cells (A549 cells, 50 uM, 48 h, CCK-8); 89.7% in experiment [1] (A549, 48 h).
Take `CC(C)(C)[C@]1(O)C[C@@H]2OC(=O)C[C@@]23C(=O)O[C@@H]2N(C4CCCC4)C(=O)[C@H](OC(=O)c4ccccc4)[C@]213` [JW081, (3aS,5aS,8R,8aS,9R,10aS)-9-(tert-butyl)-6-cyclopentyl-9-hydroxy-2,4,7-trioxooctahydro-4H,9H-furo[3″,2″:2′,3′]cyclopenta [1′,2′:3,4]furo[2,3-b]pyrrol-8-yl benzoate]: the viability at 50 µM with Jurkat cells (setting [3]) was determined as 87.1%; in the experiment on A549 cells it was 89.5%; in experiment [1], 88.3%.
Consider `CC(C)(C)[C@]1(O)C[C@@H]2OC(=O)C[C@@]23C(=O)O[C@@H]2N(c4cccc(C(F)(F)F)c4)C(=O)[C@H](OC(=O)c4ccccc4)[C@]213` [JW100, (3aS,5aS,8R,9R,10aS)-9-(tert-butyl)-9-hydroxy-2,4,7-trioxo-6-(3-(trifluoromethyl)phenyl)octahydro-4H,9H-furo [3″,2″:2′,3′]cyclopenta [1′,2′:3,4]furo [2,3-b]pyrrol-8-yl benzoate], for which the viability at 50 µM in the experiment with Jurkat cells (setting [3]) was found to be 68.2%; with A549 cells it was 54%; in experiment [1] (A549, 48 h), 61.1%.
Regarding `CC(C)(C)[C@]1(O)C[C@@H]2OC(=O)C[C@@]23C(=O)O[C@@H]2N(CCC4CCNCC4)C(=O)C(OC(=O)c4ccccc4)[C@]213` (stereo in doubt) [XBB-024, 4-(2-((3aS,5aS,8S,8aS,9R,10aS)-8-(benzoyloxy)-9-(tert-butyl)-9-hydroxy-2,4,7-trioxohexahydro-4H,9H-furo [3″,2″:2′,3′]cyclopenta [1′,2′:3,4]furo[2,3-b]pyrrol-6(5aH)-yl)ethyl)piperidin-1-ium chloride], the viability at 50 µM in the experiment with Jurkat cells (setting [2]) turned out to be 97.8%; in the experiment on A549 cells (A549 cells, 50 uM, 48 h, CCK-8), 94.7%; in experiment [1] (A549, 48 h), 96.2%.
For `Cc1ccc(N2C(=O)[C@H](OC(=O)c3ccccc3)[C@@]34[C@@H]2OC(=O)[C@@]32CC(=O)O[C@H]2C[C@@]4(O)C(C)(C)C)cc1` [P-30, (3aS,5aS,8R,9R,10aS)-9-(tert-butyl)-9-hydroxy-2,4,7-trioxo-6-(toluyl)octahydro-4H,9H-furo [3″,2″:2′,3′]cyclopenta [1′,2′:3,4]furo [2,3-b]pyrrol-8-yl benzoate] the same measures were 61.3%, 56.9% and 59.1%.
For `CN1C(=O)[C@H](OC(=O)c2ccccc2)[C@@]23[C@@H]1OC(=O)[C@@]21CC(=O)O[C@H]1C[C@@]3(O)C(C)(C)C` [DW168, (3aS,5aS,8R,8aS,9R,10aS)-9-(tert-butyl)-9-hydroxy-6-methyl-2,4,7-trioxooctahydro-4H,9H-furo [3″,2″:2′,3′]cyclopenta [1′,2′:3,4]furo[2,3-b]pyrrol-8-ylbenzoate] the same measures were 101%, 105% and 103%.
For `CC(C)(C)[C@]1(O)C[C@@H]2OC(=O)C[C@@]23C(=O)O[C@@H]2N(c4ccc(C#N)cc4)C(=O)[C@H](OC(=O)c4ccccc4)[C@]213` [JW107, (3aS,5aS,8R,9R,10aS)-9-(tert-butyl)-6-(4-cyanophenyl)-9-hydroxy-2,4,7-trioxodecahydrofuro [3″,2″:2′,3′]cyclopenta [1′,2′:3,4]furo [2,3-b]pyrrol-8-yl benzoate] the same measures were 70.2%, 75.2% and 72.7%.
